Results as given in PubChem BioAssay (NCI).
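The concentration for 50% growth inhibition is given as GI50. TGI denotes the concentration required for complete inhibition of growth.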

Legend:
Test in all cases: NCI anticancer screen, dose series, 384-well format
M14 melanoma = test system: M14 melanoma
CCRF-CEM leukemia = test system: CCRF-CEM leukemia
OVCAR-5 ovarian = test system: OVCAR-5 ovarian
SF-268 CNS = test system: SF-268 CNS
SK-OV-3 ovarian = test system: SK-OV-3 ovarian
HOP-92 NSCLC = test system: HOP-92 NSCLC
MCF7 breast = test system: MCF7 breast
DU-145 prostate = test system: DU-145 prostate
MDA-MB-468 breast = test system: MDA-MB-468 breast
SNB-75 CNS = test system: SNB-75 CNS
HL-60(TB) leukemia = test system: HL-60(TB) leukemia
KM12 colon = test system: KM12 colon
K-562 leukemia = test system: K-562 leukemia
NCI-H460 NSCLC = test system: NCI-H460 NSCLC
MOLT-4 leukemia = test system: MOLT-4 leukemia
OVCAR-4 ovarian = test system: OVCAR-4 ovarian
TK-10 renal = test system: TK-10 renal
SF-539 CNS = test system: SF-539 CNS
HCT-15 colon = test system: HCT-15 colon
EKVX NSCLC = test system: EKVX NSCLC
UACC-62 melanoma = test system: UACC-62 melanoma
MDA-MB-231 breast = test system: MDA-MB-231 breast
RPMI-8226 leukemia = test system: RPMI-8226 leukemia
SF-295 CNS = test system: SF-295 CNS
A549 NSCLC = test system: A549 NSCLC
HOP-62 NSCLC = test system: HOP-62 NSCLC
HCT-116 colon = test system: HCT-116 colon
IGROV1 ovarian = test system: IGROV1 ovarian
OVCAR-3 ovarian = test system: OVCAR-3 ovarian
BT-549 breast = test system: BT-549 breast
SNB-19 CNS = test system: SNB-19 CNS
RXF 393 renal = test system: RXF 393 renal
NCI/ADR-RES ovarian = test system: NCI/ADR-RES ovarian
UACC-257 melanoma = test system: UACC-257 melanoma
PC-3 prostate = test system: PC-3 prostate
MALME-3M melanoma = test system: MALME-3M melanoma
NCI-H226 lung = test system: NCI-H226 lung
MDA-MB-435 melanoma = test system: MDA-MB-435 melanoma
OVCAR-8 ovarian = test system: OVCAR-8 ovarian
CAKI-1 renal = test system: CAKI-1 renal
NCI-H23 lung = test system: NCI-H23 lung
T-47D breast = test system: T-47D breast
LOX IMVI melanoma = test system: LOX IMVI melanoma
NCI-H322M lung = test system: NCI-H322M lung
SK-MEL-5 melanoma = test system: SK-MEL-5 melanoma
HS 578T breast = test system: HS 578T breast
SN12C renal = test system: SN12C renal
COLO 205 colon = test system: COLO 205 colon
HCC-2998 colon = test system: HCC-2998 colon
U251 glioblastoma = test system: U251 glioblastoma
HT29 colon = test system: HT29 colon
ACHN renal = test system: ACHN renal
NCI-H522 lung = test system: NCI-H522 lung
UO-31 renal = test system: UO-31 renal
SW-620 colon = test system: SW-620 colon
786-0 renal = test system: 786-0 renal
A498 renal = test system: A498 renal
SK-MEL-28 melanoma = test system: SK-MEL-28 melanoma

For `O=C1[C@H](Cc2ccc(O)cc2)N2C(=O)CCN(C(=O)NCc3ccccc3)[C@H]2CN1Cc1cccc2ccccc12`, the GI50 (M14 melanoma) was 2.78 µM, the TGI (M14 melanoma) was 12.4 µM and the GI50 (CCRF-CEM leukemia) was 1.33 µM. It also gave a TGI (CCRF-CEM leukemia) of 7.73 µM, a GI50 (OVCAR-5 ovarian) of 1.44 µM and a TGI (OVCAR-5 ovarian) of 9.66 µM. It also gave a GI50 (SF-268 CNS) of 0.287 µM, a TGI (SF-268 CNS) of 0.792 µM and a GI50 (SK-OV-3 ovarian) of 1.66 µM. For the same compound, the TGI (SK-OV-3 ovarian) was 10.3 µM, the GI50 (HOP-92 NSCLC) was 0.386 µM and the TGI (HOP-92 NSCLC) was 1.88 µM. It also gave a GI50 (MCF7 breast) of 5.44 µM, a TGI (MCF7 breast) of 20 µM and a GI50 (DU-145 prostate) of 4.25 µM. For the same compound, the TGI (DU-145 prostate) was 17.1 µM, the GI50 (MDA-MB-468 breast) was 3.46 µM and the TGI (MDA-MB-468 breast) was 15.6 µM. For the same compound, the GI50 (SNB-75 CNS) was 0.421 µM, the TGI (SNB-75 CNS) was 2.23 µM and the GI50 (HL-60(TB) leukemia) was 3.98 µM. It also gave a TGI (HL-60(TB) leukemia) of 15 µM, a GI50 (KM12 colon) of 2.82 µM and a TGI (KM12 colon) of 13.6 µM. It also gave a GI50 (K-562 leukemia) of 0.828 µM, a TGI (K-562 leukemia) of 14.1 µM and a GI50 (NCI-H460 NSCLC) of 0.858 µM. It also gave a TGI (NCI-H460 NSCLC) of 5.2 µM, a GI50 (MOLT-4 leukemia) of 0.319 µM and a TGI (MOLT-4 leukemia) of 1.19 µM. It also gave a GI50 (OVCAR-4 ovarian) of 2.92 µM, a TGI (OVCAR-4 ovarian) of 17.2 µM and a GI50 (TK-10 renal) of 6.57 µM. The TGI (TK-10 renal) was 24.1 µM, the GI50 (SF-539 CNS) was 0.564 µM and the TGI (SF-539 CNS) was 9.79 µM. It also gave a GI50 (HCT-15 colon) of 18.9 µM, a TGI (HCT-15 colon) of 82.9 µM and a GI50 (EKVX NSCLC) of 6.96 µM. It also gave a TGI (EKVX NSCLC) of 30.7 µM, a GI50 (UACC-62 melanoma) of 1.35 µM and a TGI (UACC-62 melanoma) of 8.06 µM. It also gave a GI50 (MDA-MB-231 breast) of 0.556 µM, a TGI (MDA-MB-231 breast) of 12 µM and a GI50 (RPMI-8226 leukemia) of 2.03 µM. It also gave a TGI (RPMI-8226 leukemia) of 12.3 µM, a GI50 (SF-295 CNS) of 3.79 µM and a TGI (SF-295 CNS) of 13.7 µM. The GI50 (A549 NSCLC) was 1.83 µM, the TGI (A549 NSCLC) was 13.8 µM and the GI50 (HOP-62 NSCLC) was 2.99 µM. It also gave a TGI (HOP-62 NSCLC) of 11.9 µM, a GI50 (HCT-116 colon) of 0.738 µM and a TGI (HCT-116 colon) of 11.8 µM. The GI50 (IGROV1 ovarian) was 0.353 µM, the TGI (IGROV1 ovarian) was 2.49 µM and the GI50 (OVCAR-3 ovarian) was 0.632 µM. The TGI (OVCAR-3 ovarian) was 6.89 µM, the GI50 (BT-549 breast) was 1.28 µM and the TGI (BT-549 breast) was 11.6 µM. For the same compound, the GI50 (SNB-19 CNS) was 0.678 µM, the TGI (SNB-19 CNS) was 21.8 µM and the GI50 (RXF 393 renal) was 3.22 µM. It also gave a TGI (RXF 393 renal) of 14.6 µM, a GI50 (NCI/ADR-RES ovarian) greater than 100 µM and a TGI (NCI/ADR-RES ovarian) greater than 100 µM. The GI50 (UACC-257 melanoma) was 3.45 µM, the TGI (UACC-257 melanoma) was 14 µM and the GI50 (PC-3 prostate) was 1.74 µM. The TGI (PC-3 prostate) was 9.23 µM, the GI50 (MALME-3M melanoma) was 1.24 µM and the TGI (MALME-3M melanoma) was 5.89 µM. The GI50 (NCI-H226 lung) was 2.95 µM, the TGI (NCI-H226 lung) was 11.1 µM and the GI50 (MDA-MB-435 melanoma) was 4.85 µM. It also gave a TGI (MDA-MB-435 melanoma) of 17.7 µM, a GI50 (OVCAR-8 ovarian) of 1.35 µM and a TGI (OVCAR-8 ovarian) of 11.9 µM. The GI50 (CAKI-1 renal) was 2.15 µM, the TGI (CAKI-1 renal) was 5.94 µM and the GI50 (NCI-H23 lung) was 4.97 µM. For the same compound, the TGI (NCI-H23 lung) was 17.7 µM, the GI50 (T-47D breast) was 0.441 µM and the TGI (T-47D breast) was 3.68 µM. It also gave a GI50 (LOX IMVI melanoma) of 1.15 µM, a TGI (LOX IMVI melanoma) of 5.36 µM and a GI50 (NCI-H322M lung) of 3.72 µM. For the same compound, the TGI (NCI-H322M lung) was 19.1 µM, the GI50 (SK-MEL-5 melanoma) was 1.33 µM and the TGI (SK-MEL-5 melanoma) was 4.11 µM. The GI50 (HS 578T breast) was 0.182 µM, the TGI (HS 578T breast) was 0.77 µM and the GI50 (SN12C renal) was 2.78 µM. For the same compound, the TGI (SN12C renal) was 16.8 µM, the GI50 (COLO 205 colon) was 0.662 µM and the TGI (COLO 205 colon) was 10.2 µM. For the same compound, the GI50 (HCC-2998 colon) was 2.1 µM, the TGI (HCC-2998 colon) was 15.3 µM and the GI50 (U251 glioblastoma) was 0.578 µM. The TGI (U251 glioblastoma) was 11.2 µM, the GI50 (HT29 colon) was 3.17 µM and the TGI (HT29 colon) was 15.8 µM. It also gave a GI50 (ACHN renal) of 10.7 µM, a TGI (ACHN renal) of 37.7 µM and a GI50 (NCI-H522 lung) of 0.518 µM. For the same compound, the TGI (NCI-H522 lung) was 12.6 µM, the GI50 (UO-31 renal) was 16.1 µM and the TGI (UO-31 renal) was 33.3 µM. It also gave a GI50 (SW-620 colon) of 7.63 µM, a TGI (SW-620 colon) greater than 100 µM and a GI50 ([…]-0 renal) of 2.76 µM. The TGI (786-0 renal) was 16.9 µM, the GI50 (A498 renal) was 2.9 µM and the TGI (A498 renal) was 9.62 µM. For the same compound, the GI50 (SK-MEL-28 melanoma) was 1.98 µM and the TGI (SK-MEL-28 melanoma) was 11.4 µM.
